# Reference: ChEMBL document CHEMBL6109122 (J Med Chem, 2025)
# Calls of active or inactive are those of the source. The calls are words filed in the database; no cut-off is given here.
# Biological target: T1, Protein cereblon/Non-receptor tyrosine-protein kinase TYK2 (Homo sapiens, UniProt P29597+Q96SW2)
# Test: PROTAC activity at CRBN/TYK2 in human Jurkat cells assessed as induction of degradation of TYK2 measured after 10 hrs by Western blot analysis
# Type: cell-based
# Settings: not given
# Target sequence in this assay (P29597 whole entry): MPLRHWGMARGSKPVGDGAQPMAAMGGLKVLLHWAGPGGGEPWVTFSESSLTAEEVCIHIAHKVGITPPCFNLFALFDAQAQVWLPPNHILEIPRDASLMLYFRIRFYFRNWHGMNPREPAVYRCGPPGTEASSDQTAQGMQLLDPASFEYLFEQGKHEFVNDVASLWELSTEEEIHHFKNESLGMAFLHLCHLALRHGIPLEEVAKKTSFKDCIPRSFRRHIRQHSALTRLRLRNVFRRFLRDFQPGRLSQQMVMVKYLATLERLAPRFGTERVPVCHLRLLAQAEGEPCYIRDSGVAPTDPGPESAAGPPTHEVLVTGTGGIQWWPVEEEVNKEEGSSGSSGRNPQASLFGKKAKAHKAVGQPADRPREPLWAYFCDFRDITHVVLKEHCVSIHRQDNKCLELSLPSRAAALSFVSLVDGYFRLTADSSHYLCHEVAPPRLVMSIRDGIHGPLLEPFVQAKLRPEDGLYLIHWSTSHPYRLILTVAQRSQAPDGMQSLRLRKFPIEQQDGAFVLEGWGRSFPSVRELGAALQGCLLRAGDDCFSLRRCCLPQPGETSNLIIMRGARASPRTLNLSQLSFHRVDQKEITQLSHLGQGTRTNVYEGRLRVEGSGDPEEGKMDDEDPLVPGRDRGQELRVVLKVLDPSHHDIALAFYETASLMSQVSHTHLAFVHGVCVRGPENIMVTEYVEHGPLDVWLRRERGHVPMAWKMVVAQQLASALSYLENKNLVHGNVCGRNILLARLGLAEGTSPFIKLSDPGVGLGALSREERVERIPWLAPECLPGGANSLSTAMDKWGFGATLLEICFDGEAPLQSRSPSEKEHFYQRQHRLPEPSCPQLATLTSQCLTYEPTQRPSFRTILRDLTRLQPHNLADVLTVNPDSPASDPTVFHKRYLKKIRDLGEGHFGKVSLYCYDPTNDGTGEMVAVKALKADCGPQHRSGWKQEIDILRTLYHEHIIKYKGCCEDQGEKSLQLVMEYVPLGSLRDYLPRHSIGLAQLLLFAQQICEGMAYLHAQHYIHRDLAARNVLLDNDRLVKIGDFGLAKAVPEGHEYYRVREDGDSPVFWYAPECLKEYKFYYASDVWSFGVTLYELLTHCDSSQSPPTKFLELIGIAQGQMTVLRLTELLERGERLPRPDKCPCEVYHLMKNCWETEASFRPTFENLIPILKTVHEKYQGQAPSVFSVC
# Target sequence in this assay (Q96SW2 whole entry): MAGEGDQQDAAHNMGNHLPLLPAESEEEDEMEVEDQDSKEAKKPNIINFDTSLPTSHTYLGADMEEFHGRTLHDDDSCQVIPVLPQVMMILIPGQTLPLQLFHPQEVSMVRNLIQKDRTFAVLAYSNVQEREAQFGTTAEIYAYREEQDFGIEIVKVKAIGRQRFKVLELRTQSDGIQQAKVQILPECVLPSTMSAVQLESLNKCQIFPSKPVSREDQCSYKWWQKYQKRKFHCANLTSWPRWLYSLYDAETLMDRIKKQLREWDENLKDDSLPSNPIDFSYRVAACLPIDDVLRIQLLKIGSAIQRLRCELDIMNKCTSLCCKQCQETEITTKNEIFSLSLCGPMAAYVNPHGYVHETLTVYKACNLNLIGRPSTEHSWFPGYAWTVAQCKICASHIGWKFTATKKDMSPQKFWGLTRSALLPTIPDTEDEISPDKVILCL
row,Structure (SMILES),DC50
1,CNC(=O)c1cnc(Nc2ccc(C(=O)NCCCCCNc3cccc4c3C(=O)N(C3CCC(=O)NC3=O)C4=O)cn2)cc1Nc1cccc(-c2ncc(F)cn2)c1OC (stereo unspecified),0.43 nM

# Tested on: not listed separately
# Test: Tmax in male ICR mouse at 1 mg/kg, iv measured up to 24 hrs by LC-MS/MS analysis
# Type: ADME, organism-based
# Settings: in vivo
row,Structure (SMILES),Tmax
1,CNC(=O)c1cnc(Nc2ccc(C(=O)N(C)C3CCN(c4ccc5c(c4)C(=O)N(C4CCC(=O)NC4=O)C5=O)CC3)cn2)cc1Nc1cccc(-c2ncc(F)cn2)c1OC (stereo unspecified),4.8 min

# Tested on: not listed separately
# Test: Half life in male ICR mouse at 1 mg/kg, iv measured up to 24 hrs by LC-MS/MS analysis
# Type: ADME, organism-based
# Settings: in vivo
row,Structure (SMILES),half-life
1,CNC(=O)c1cnc(Nc2ccc(C(=O)N(C)C3CCN(c4ccc5c(c4)C(=O)N(C4CCC(=O)NC4=O)C5=O)CC3)cn2)cc1Nc1cccc(-c2ncc(F)cn2)c1OC (stereo unspecified),39.6 min

# Biological target: T1, Protein cereblon/Non-receptor tyrosine-protein kinase TYK2
# Test: PROTAC activity at CRBN/TYK2 in human Jurkat cells assessed as induction of degradation of TYK2 at 100 ug/ml measured after 10 hrs by Western blot analysis
# Type: cell-based
# Settings: dose 100.0 µg/ml
# Target sequence in this assay (P29597 whole entry, looked up): as the sequence (P29597 whole entry) above
# Target sequence in this assay (Q96SW2 whole entry, looked up): as the sequence (Q96SW2 whole entry) above
row,Structure (SMILES),Activity
1,C[C@@H]1C[C@@H]([C@H](O)CC2CC(=O)NC(=O)C2)C(=O)[C@@H](C)C1,Active

# Tested on: not listed separately
# Test: Half life in male ICR mouse at 10 mg/kg, po measured up to 24 hrs by LC-MS/MS analysis
# Type: ADME, organism-based
# Settings: in vivo
row,Structure (SMILES),half-life
1,CNC(=O)c1cnc(Nc2ccc(C(=O)N(C)C3CCN(c4ccc5c(c4)C(=O)N(C4CCC(=O)NC4=O)C5=O)CC3)cn2)cc1Nc1cccc(-c2ncc(F)cn2)c1OC (stereo unspecified),72 min

# Tested on: not listed separately
# Test: Cmax in male ICR mouse at 10 mg/kg, po measured up to 24 hrs by LC-MS/MS analysis
# Type: ADME, organism-based
# Settings: in vivo
row,Structure (SMILES),Cmax
1,CNC(=O)c1cnc(Nc2ccc(C(=O)N(C)C3CCN(c4ccc5c(c4)C(=O)N(C4CCC(=O)NC4=O)C5=O)CC3)cn2)cc1Nc1cccc(-c2ncc(F)cn2)c1OC (stereo unspecified),124 ng/mL

# Tested on: not listed separately
# Test: AUC (0 to infinity) in male ICR mouse at 1 mg/kg, iv measured up to 24 hrs by LC-MS/MS analysis
# Type: ADME, organism-based
# Settings: in vivo
row,Structure (SMILES),AUC(0-inf)
1,CNC(=O)c1cnc(Nc2ccc(C(=O)N(C)C3CCN(c4ccc5c(c4)C(=O)N(C4CCC(=O)NC4=O)C5=O)CC3)cn2)cc1Nc1cccc(-c2ncc(F)cn2)c1OC (stereo unspecified),717 ng·h/mL

# Biological target: T1, Protein cereblon/Non-receptor tyrosine-protein kinase TYK2
# Test: PROTAC activity at CRBN/TYK2 in human HaCaT cells assessed as induction of degradation of TYK2 measured after 10 hrs by Western blot analysis
# Type: cell-based
# Settings: dose 1-100 nM, tested as the 2H-labelled form
# Target sequence in this assay (P29597 whole entry, looked up): as the sequence (P29597 whole entry) above
# Target sequence in this assay (Q96SW2 whole entry, looked up): as the sequence (Q96SW2 whole entry) above
row,Structure (SMILES),Activity
1,CNC(=O)c1nnc(NC(=O)C2CC2)cc1Nc1cccc(-c2ncn(C)n2)c1OC,inactive

# Tested on: not listed separately
# Test: Cmax in male ICR mouse at 1 mg/kg, iv measured up to 24 hrs by LC-MS/MS analysis
# Type: ADME, organism-based
# Settings: in vivo
row,Structure (SMILES),Cmax
1,CNC(=O)c1cnc(Nc2ccc(C(=O)N(C)C3CCN(c4ccc5c(c4)C(=O)N(C4CCC(=O)NC4=O)C5=O)CC3)cn2)cc1Nc1cccc(-c2ncc(F)cn2)c1OC (stereo unspecified),1490 ng/mL

# Biological target: T1, Protein cereblon/Non-receptor tyrosine-protein kinase TYK2
# Test: PROTAC activity at CRBN/TYK2 in human Jurkat cells assessed as induction of degradation of TYK2 at 1 nM measured after 10 hrs by Western blot analysis relative to control
# Type: cell-based
# Settings: not given
# Target sequence in this assay (P29597 whole entry, looked up): as the sequence (P29597 whole entry) above
# Target sequence in this assay (Q96SW2 whole entry, looked up): as the sequence (Q96SW2 whole entry) above
row,Structure (SMILES),Activity
1,CNC(=O)c1cnc(Nc2ccc(C(=O)N3CCC(CNc4ccc5c(c4)C(=O)N(C4CCC(=O)NC4=O)C5=O)CC3)cn2)cc1Nc1cccc(-c2ncc(F)cn2)c1OC (stereo unspecified),7%
2,CNC(=O)c1cnc(Nc2ccc(C(=O)N3CCC4(CC3)CCN(c3ccc5c(c3)C(=O)N(C3CCC(=O)NC3=O)C5=O)CC4)cn2)cc1Nc1cccc(-c2ncc(F)cn2)c1OC (stereo unspecified),inactive

# Tested on: not listed separately
# Test: Metabolic stability in mouse liver microsomes assessed as half life measured up to 120 mins by LC-MS/MS analysis
# Type: ADME, Microsome
# Settings: not given
row,Structure (SMILES),half-life
1,CNC(=O)c1cnc(Nc2ccc(C(=O)N(C)C3CCN(c4ccc5c(c4)C(=O)N(C4CCC(=O)NC4=O)C5=O)CC3)cn2)cc1Nc1cccc(-c2ncc(F)cn2)c1OC (stereo unspecified),41 min

# Biological target: T1, Protein cereblon/Non-receptor tyrosine-protein kinase TYK2
# Test: PROTAC activity at CRBN/TYK2 in human Jurkat cells assessed as induction of degradation of TYK2 at 10 nM measured after 10 hrs by Western blot analysis relative to control
# Type: cell-based
# Settings: not given
# Target sequence in this assay (P29597 whole entry, looked up): as the sequence (P29597 whole entry) above
# Target sequence in this assay (Q96SW2 whole entry, looked up): as the sequence (Q96SW2 whole entry) above
row,Structure (SMILES),Activity
1,CNC(=O)c1cnc(Nc2ccc(C(=O)N3CCC(CNc4ccc5c(c4)C(=O)N(C4CCC(=O)NC4=O)C5=O)CC3)cn2)cc1Nc1cccc(-c2ncc(F)cn2)c1OC (stereo unspecified),35%
2,CNC(=O)c1cnc(Nc2ccc(C(=O)N3CCC4(CC3)CCN(c3ccc5c(c3)C(=O)N(C3CCC(=O)NC3=O)C5=O)CC4)cn2)cc1Nc1cccc(-c2ncc(F)cn2)c1OC (stereo unspecified),65%
3,CNC(=O)c1cnc(Nc2ccc(C(=O)NCCCCCNc3cccc4c3C(=O)N(C3CCC(=O)NC3=O)C4=O)cn2)cc1Nc1cccc(-c2ncc(F)cn2)c1OC (stereo unspecified),86%

# Same assay, conditions: tested as the 2H-labelled form
row,Structure (SMILES),Activity
1,CNC(=O)c1nnc(NC(=O)C2CC2)cc1Nc1cccc(-c2ncn(C)n2)c1OC,inactive

# Tested on: not listed separately
# Test: AUC (0 to t) in male ICR mouse at 10 mg/kg, po measured up to 24 hrs by LC-MS/MS analysis
# Type: ADME, organism-based
# Settings: in vivo
row,Structure (SMILES),AUC(0-t) at 24 h
1,CNC(=O)c1cnc(Nc2ccc(C(=O)N(C)C3CCN(c4ccc5c(c4)C(=O)N(C4CCC(=O)NC4=O)C5=O)CC3)cn2)cc1Nc1cccc(-c2ncc(F)cn2)c1OC (stereo unspecified),159 ng·h/mL

# Tested on: not listed separately
# Test: Apparent permeability of the compound in human Caco-2 cells at 10 uM measured up to 120 min by LC-MS/MS analysis
# Type: ADME, cell-based
# Settings: not given
row,Structure (SMILES),"Papp at 2 h, 10 µM"
1,CNC(=O)c1cnc(Nc2ccc(C(=O)N(C)C3CCN(c4ccc5c(c4)C(=O)N(C4CCC(=O)NC4=O)C5=O)CC3)cn2)cc1Nc1cccc(-c2ncc(F)cn2)c1OC (stereo unspecified),0.26 ×10⁻⁶ cm/s

# Tested on: not listed separately
# Test: Tmax in male ICR mouse at 10 mg/kg, po measured up to 24 hrs by LC-MS/MS analysis
# Type: ADME, organism-based
# Settings: in vivo
row,Structure (SMILES),Tmax
1,CNC(=O)c1cnc(Nc2ccc(C(=O)N(C)C3CCN(c4ccc5c(c4)C(=O)N(C4CCC(=O)NC4=O)C5=O)CC3)cn2)cc1Nc1cccc(-c2ncc(F)cn2)c1OC (stereo unspecified),18 min

# Tested on: not listed separately
# Test: AUC (0 to infinity) in male ICR mouse at 10 mg/kg, po measured up to 24 hrs by LC-MS/MS analysis
# Type: ADME, organism-based
# Settings: in vivo
row,Structure (SMILES),AUC(0-inf)
1,CNC(=O)c1cnc(Nc2ccc(C(=O)N(C)C3CCN(c4ccc5c(c4)C(=O)N(C4CCC(=O)NC4=O)C5=O)CC3)cn2)cc1Nc1cccc(-c2ncc(F)cn2)c1OC (stereo unspecified),163 ng·h/mL

# Tested on: not listed separately
# Test: AUC (0 to t) in male ICR mouse at 1 mg/kg, iv measured up to 24 hrs by LC-MS/MS analysis
# Type: ADME, organism-based
# Settings: in vivo
row,Structure (SMILES),AUC(0-t) at 24 h
1,CNC(=O)c1cnc(Nc2ccc(C(=O)N(C)C3CCN(c4ccc5c(c4)C(=O)N(C4CCC(=O)NC4=O)C5=O)CC3)cn2)cc1Nc1cccc(-c2ncc(F)cn2)c1OC (stereo unspecified),712 ng·h/mL

# Tested on: not listed separately
# Test: Oral bioavailability in male ICR mouse at 10 mg/kg measured up to 24 hrs by LC-MS/MS analysis
# Type: ADME, organism-based
# Settings: in vivo
row,Structure (SMILES),bioavailability
1,CNC(=O)c1cnc(Nc2ccc(C(=O)N(C)C3CCN(c4ccc5c(c4)C(=O)N(C4CCC(=O)NC4=O)C5=O)CC3)cn2)cc1Nc1cccc(-c2ncc(F)cn2)c1OC (stereo unspecified),2.2%

# Biological target: T1, Protein cereblon/Non-receptor tyrosine-protein kinase TYK2
# Test: PROTAC activity at CRBN/TYK2 in human Jurkat cells assessed as induction of degradation of TYK2 at 100 nM measured after 10 hrs by Western blot analysis relative to control
# Type: cell-based
# Settings: not given
# Target sequence in this assay (P29597 whole entry, looked up): as the sequence (P29597 whole entry) above
# Target sequence in this assay (Q96SW2 whole entry, looked up): as the sequence (Q96SW2 whole entry) above
row,Structure (SMILES),Activity
1,CNC(=O)c1cnc(Nc2ccc(C(=O)N3CCC(CNc4ccc5c(c4)C(=O)N(C4CCC(=O)NC4=O)C5=O)CC3)cn2)cc1Nc1cccc(-c2ncc(F)cn2)c1OC (stereo unspecified),10%
2,CNC(=O)c1cnc(Nc2ccc(C(=O)N3CCC4(CC3)CCN(c3ccc5c(c3)C(=O)N(C3CCC(=O)NC3=O)C5=O)CC4)cn2)cc1Nc1cccc(-c2ncc(F)cn2)c1OC (stereo unspecified),13%
3,CNC(=O)c1cnc(Nc2ccc(C(=O)NCCCCCNc3cccc4c3C(=O)N(C3CCC(=O)NC3=O)C4=O)cn2)cc1Nc1cccc(-c2ncc(F)cn2)c1OC (stereo unspecified),94%

# Same assay, conditions: tested as the 2H-labelled form
row,Structure (SMILES),Activity
1,CNC(=O)c1nnc(NC(=O)C2CC2)cc1Nc1cccc(-c2ncn(C)n2)c1OC,inactive
